Assay results: ChEMBL document CHEMBL4613212, “Insights of synthetic analogues of anti-leprosy agents” (Bioorg Med Chem, 2019)
≈ marks a conversion by molar mass, not a printed value.

Assays:
[1] = test system: Mycolicibacterium smegmatis; experiment: Antimycobacterial activity against Mycobacterium smegmatis mc2 155 incubated for 2 days by spectrophotometric based assay; format: functional; conditions: MC2 155, 48 h
Monocyte [2] = experiment: Antiinflammatory activity in human monocytes assessed as inhibition of LPS-induced TNFaplha production at 50 uM preincubated for 15 mins followed by LPS addition and measured after 4 hrs by ELISA relative to control; format: functional
[3] = Cytotoxicity against LPS-induced human monocytes assessed as cell viability at 50 uM by tryphan blue staining based assay relative to control; design: species or system Monocyte; conditions: read-out: Activity
Mycobacterium leprae [4] = experiment: Anti-leprotic activity against Mycobacterium leprae infected in 538 CBA mouse assessed as number of Mycobacterium leprae in paw pads at 2 mg/kg administrated via gastric tube 5 times a week and measured 7 months post infection; format: functional
Mycobacterium leprae [5] = experiment: Anti-leprotic activity against Mycobacterium leprae infected in 538 CBA mouse assessed as number of Mycobacterium leprae in paw pads at 6 mg/kg administrated via gastric tube 5 times a week and measured 7 months post infection; format: functional
[6] = test system: Mycolicibacterium smegmatis; experiment: Antimicrobial activity against Mycobacterium smegmatis incubated for 24 hrs by broth microdilution assay; format: functional
Mycolicibacterium aurum = experiment: Antimicrobial activity against Mycobacterium aurum incubated for 24 hrs by broth microdilution assay; format: functional
Mycolicibacterium vaccae = experiment: Antimicrobial activity against Mycobacterium vaccae incubated for 24 hrs by broth microdilution assay; format: functional
[7] = test system: Mycolicibacterium fortuitum; experiment: Antimicrobial activity against Mycobacterium fortuitum incubated for 24 hrs by broth microdilution assay; format: functional
Staphylococcus aureus = experiment: Antimicrobial activity against Staphylococcus aureus assessed as zone of inhibition incubated for 20 hrs by agar well diffusion assay; format: functional
Escherichia coli = experiment: Antimicrobial activity against Escherichia coli assessed as zone of inhibition incubated for 20 hrs by agar well diffusion assay; format: functional
Plasmodium berghei = experiment: Antimalarial activity against Plasmodium berghei infected in albino mouse assessed survival against infection at 400 mg/kg, sc administered as single dose; format: functional
Mycobacterium leprae [8] = experiment: Anti-leprotic activity against Mycobacterium leprae infected in albino mouse assessed survival against infection at 400 mg/kg, sc administered 58 days post-infection and subsequent compound dosing at 200 mg/kg at 0.5, 1 or 2 months interval; format: functional
[9] = Drug excretion in rat urine at 400 mg/kg, sc administered as single dose measured after 30 days; format: ADME, organism-based; conditions: read-out: Drug excretion
[10] = Half life in rat at 400 mg/kg, sc administered as single dose; format: ADME, organism-based; conditions: in vivo
[11] = Inhibition of Mycobacterium smegmatis ATCC 607 dihydrofolic reductase; design: species or system Mycolicibacterium smegmatis
[12] = test system: Mycolicibacterium smegmatis; experiment: Inhibition of Mycobacterium smegmatis ATCC 607 dihydrofolic reductase assessed as ratio of Km to Ki
[13] = test system: Mycolicibacterium smegmatis; experiment: Antimicrobial activity against Mycobacterium smegmatis ATCC 607; format: functional; conditions: Mycolicibacterium smegmatis, ATCC 607; read-out: MIC
Monocyte [14] = experiment: Antiinflammatory activity in human monocytes assessed as inhibition of LPS-induced TNFaplha production at 25 uM preincubated for 15 mins followed by LPS addition and measured after 4 hrs by ELISA relative to control; format: functional
[15] = Drug concentration in rat blood at 400 mg/kg, sc administered as single dose; format: ADME, organism-based; conditions: in vivo
Rattus norvegicus = experiment: Effect of metallo-protein haemoglobin in rat assessed as peak methemoglobin level at 400 mg/kg, sc administered as single dose; format: ADME, organism-based; conditions: in vivo
[16] = test system: Mycolicibacterium smegmatis; experiment: Antimicrobial activity against Mycobacterium smegmatis incubated for 30 to 32 hrs under shaking condition relative to control; format: functional
[17] = test system: Mycolicibacterium smegmatis; experiment: Antimicrobial activity against Mycobacterium smegmatis incubated for 30 to 32 hrs under shaking condition; format: functional
Mycobacterium leprae [18] = experiment: Anti-leprotic activity against Mycobacterium leprae infected in CBA mouse assessed as number of Mycobacterium leprae in paw pads at 10 mg/kg administrated 5 times a week and measured 7.5 months post infection (reference value: 3.91 +/- 0.33 10^5); format: functional
Mycobacterium leprae [19] = experiment: Anti-leprotic activity against Mycobacterium leprae infected in CBA mouse assessed as number of Mycobacterium leprae in paw pads at 30 mg/kg administrated 5 times a week and measured 7.5 months post infection (reference value: 3.91 +/- 0.33 10^5); format: functional
Mycobacterium leprae [20] = experiment: (§1) Inhibition of PGL1 synthesis in Mycobacterium leprae infected Swiss Webster mouse macrophages assessed as decrease in [U-14C]PA incorporation at 2 uM preincubated for 4 days post infection followed by [U-14C]PA addition and measured after 7 days by liquid scintillation counter analysis relative to control; format: functional
Mycobacterium leprae [21] = experiment: as §1, with “0.2” for “2”; format: functional

O=C1c2ccccc2C(=O)N1c1ccc(S(=O)(=O)Nc2cnccn2)cc1
MIC99 [1]: 6800 µM (≈ 2590 µg/mL)

O=C1c2c(F)c(F)c(F)c(F)c2C(=O)N1c1cnc(O)nc1O
inhibition at 50 µM (Monocyte [2]): < 10%
viability at 50 µM [3]: 95%

COc1cc(Oc2cnc(N)nc2N)cc(OC)c1Br
Activity (Mycobacterium leprae [4]): 1.27 ×10⁷ No_unit
Activity (Mycobacterium leprae [5]): 0.56 ×10⁷ No_unit

NC(=O)c1cc([N+](=O)[O-])cc([N+](=O)[O-])c1SC(=S)N1CCCC1
MIC [6]: 50 µg/mL (≈ 140 µM)
MIC (Mycolicibacterium aurum): 6.25 µg/mL (≈ 17.5 µM)
MIC (Mycolicibacterium vaccae): 0.4 µg/mL (≈ 1.12 µM)
MIC [7]: 6.25 µg/mL (≈ 17.5 µM)

O=C1c2ccccc2C(=O)N1c1ccc(S(=O)(=O)Nc2ccccn2)cn1
MIC99 [1]: 6100 µM (≈ 2320 µg/mL)

C[C@@H](O)[C@H]1C(=O)N2C(C(=O)O)=C(SCCNC=N)O[C@H]12
diameter of the inhibition zone (DIZ) (Staphylococcus aureus): 28 mm
diameter of the inhibition zone (DIZ) (Escherichia coli): 31 mm

CC(=O)Nc1ccc(S(=O)(=O)c2ccc(N(C)C(C)=O)cc2)cc1
Survival (Plasmodium berghei): 6 weeks
Survival (Mycobacterium leprae [8]): >8 weeks
dose excreted at 720 h [9]: 44%
half-life [10]: 27 days

N#Cc1cc([N+](=O)[O-])cnc1SC(=S)N1CCCCCC1
MIC [6]: 1.56 µg/mL (≈ 4.84 µM)
MIC (Mycolicibacterium aurum): 1.56 µg/mL (≈ 4.84 µM)
MIC (Mycolicibacterium vaccae): 0.4 µg/mL (≈ 1.24 µM)
MIC [7]: 0.8 µg/mL (≈ 2.48 µM)
Activity (Mycobacterium leprae [4]): 6.64 ×10⁷ No_unit
Activity (Mycobacterium leprae [5]): 0.28 ×10⁷ No_unit

CCCCCCCCC(CCC1CCCO1)C(=O)O (stereo not given)
MIC99 [1]: 9600 µM (≈ 2600 µg/mL)

CC(=O)N(C)c1ccc(S(=O)(=O)c2ccc(N(C)C(C)=O)cc2)cc1
Survival (Plasmodium berghei): 9 weeks
Survival (Mycobacterium leprae [8]): >8 weeks
dose excreted at 720 h [9]: 85%
half-life [10]: 10 days

Nc1nc(N)c2nc(Cc3ccc(Cl)c(Cl)c3)cnc2n1
Ki [11]: 2 nM
Ratio [12]: 58.5
MIC [13]: > 311 µM

O=C1c2cccc([N+](=O)[O-])c2C(=O)N1c1cn(-c2ccccc2)c(=O)[nH]c1=O
inhibition at 50 µM (Monocyte [2]): < 10%
inhibition at 25 µM (Monocyte [14]): < 10%
viability at 50 µM [3]: 90%

COc1ncnc(SC(=S)N2CCCC2)c1[N+](=O)[O-]
MIC [6]: 3.12 µg/mL (≈ 10.4 µM)
MIC (Mycolicibacterium aurum): 1.56 µg/mL (≈ 5.19 µM)
MIC (Mycolicibacterium vaccae): 0.8 µg/mL (≈ 2.66 µM)
MIC [7]: 1.56 µg/mL (≈ 5.19 µM)
Activity (Mycobacterium leprae [4]): 0.07 ×10⁷ No_unit
Activity (Mycobacterium leprae [5]): 0.029 ×10⁷ No_unit

CC(=O)Nc1ccc(S(=O)(=O)c2ccc(/N=C/c3ccc(/C=N/c4ccc(S(=O)(=O)c5ccc(NC(C)=O)cc5)cc4)cc3)cc2)cc1
Survival (Plasmodium berghei): 5 - 7 weeks
Survival (Mycobacterium leprae [8]): >8 weeks
dose excreted at 720 h [9]: 40%
half-life [10]: 55 days
Drug uptake [15]: 0.4 µg/mL
Activity (Rattus norvegicus): 0.2 g/dL

CCn1cc(C(=O)N/N=C\c2cc(OC)c(OC)c(OC)c2)c(=O)c2cc(F)c(N3CCN(C)CC3)cc21
Activity [16]: >30%
MIC [17]: 81.2 µM (≈ 42.7 µg/mL)

Nc1ccc(F)c(F)c1
inhibition at 50 µM (Monocyte [2]): 19%
viability at 50 µM [3]: 99%

CN(C)C(=S)Sc1c([N+](=O)[O-])cc([N+](=O)[O-])nc1C#N
Activity (Mycobacterium leprae [18]): 2.13 ×10⁵ No_unit
Activity (Mycobacterium leprae [19]): 1.83 ×10⁵ No_unit

O=C1CCC(N2C(=O)c3ccccc3C2=O)C(=O)N1 (stereo not given) [THALIDOMIDE]
inhibition at 50 µM (Monocyte [2]): 15%
inhibition at 25 µM (Monocyte [14]): < 10%
viability at 50 µM [3]: 98%

CCN(CC)CCC/N=c1/cc2n(-c3ccc(Cl)cc3)c3ccccc3nc-2cc1Nc1ccc(Cl)cc1
inhibition at 2 µM (Mycobacterium leprae [20]): 90%
inhibition at 0.2 µM (Mycobacterium leprae [21]): 22%

N#Cc1cc([N+](=O)[O-])cnc1SC(=S)N1CCCCC1
MIC [6]: 3.12 µg/mL (≈ 10.1 µM)
MIC (Mycolicibacterium aurum): 1.56 µg/mL (≈ 5.06 µM)
MIC (Mycolicibacterium vaccae): 1.56 µg/mL (≈ 5.06 µM)
MIC [7]: 1.56 µg/mL (≈ 5.06 µM)

CCn1cc(C(=O)N/N=C\c2cccc(O)c2)c(=O)c2cc(F)c(N3CCN(C)CC3)cc21
Activity [16]: >30%
MIC [17]: 27.2 µM (≈ 12.3 µg/mL)

Clc1ccc(Nc2cc3nc4ccccc4n(-c4ccc(Cl)cc4)c-3c/c2=N/CCCN2CCCC2)cc1
inhibition at 2 µM (Mycobacterium leprae [20]): 98%
inhibition at 0.2 µM (Mycobacterium leprae [21]): 26%

O=C1c2ccccc2C(=O)N1c1cnc(S(=O)(=O)Nc2ccccn2)cn1
MIC99 [1]: 3000 µM (≈ 1140 µg/mL)
